The values that follow come from US9725418B2, “Pyrimidine compound” (Sumitomo Chemical Company, Limited, priority 2014, dated 2017).

The structures appear in SMILES notation.

Holding throughout (type): in vivo
Experiment [1] has as its system common house mosquito (Culex pipiens pollens). Put plainly: Test Example 10: larvae in treated water, common house mosquito mortality. The conditions noted are these: active ingredient concentration of 3.5 ppm in water, final instar larvae, after 24 hours, read-out: Mortality of insects. As for the experimental part: (§1) A Formulation of the compound of the present invention that was prepared according to Formulation Example 5 was diluted with water so that the active ingredient concentration was set to 500 ppm to prepare a testing agent solution.
The above-mentioned testing agent solution 0.7 mL was added to 100 mL of ion-exchange water (the active ingredient concentration of 3.5 ppm). Twenty (20) heads of the final instar larvae of common house mosquito (Culex pipiens pollens) was released onto the above-mentioned solution. After 24 hours, the life and death of common house mosquito was examined, and the number of died insects was counted and the mortality of insects was calculated by the following equation. Mortality of insects (%)=(Number of dead insects)/(Number of tested insects)×100

The test system of experiment [2] is summer fruit tortrix (Adoxophyes orana). Briefly: Test Example 3: artificial diet, summer fruit tortrix mortality. Particulars: 168 h, 1 mL on artificial diet SilkMate 2S, first instar larvae, after 7 days. As for the experimental part: (§2) A formulation of the compound of the present invention that was prepared according to Formulation Example 5 was diluted with water so that the active ingredient concentration was set to 500 ppm to prepare a testing agent solution.
A filter paper having a diameter of 5.5 cm was spread on the bottom of a polyethylene cup having a diameter of 5.5 cm. SilkMate 2S (manufactured by NOSAN CORPORATION), an artificial diet, was sliced to 2 mm in thickness and then placed on the filter paper. Then, 1 mL of the test solution (500 ppm) was poured into the polyethylene cup. After the test solution was air-dried, the filter paper having a diameter of 5.5 cm was put on the artificial diet, and 30 first instar larvae of summer fruit tortrix (Adoxophyes orana) were released on the filter paper, and the cup was sealed with a lid. After 7 days, the number of surviving summer fruit tortrix was counted and mortality was calculated according to the following equation. Mortality (%)=(Number of dead larvae/Number of tested larvae)×100

In experiment [3] the test system is cabbage moth (Plutella xylostella). Briefly: Test Example 1: cabbage foliar spray, cabbage moth mortality. Particulars: 120 h, 20 mL sprayed onto cabbage, second instar larvae, 25° C., after 5 days. As for the experimental part: as §2
Twenty (20) mL of the above-mentioned testing medicinal solution was sprayed onto a cabbage (Brassicae oleracea) in the third to fourth leaf stage. After the testing medicinal solution was dried, the aerial part of the plant was cut, and then was installed in a polyethylene cup (volume 100 mL) together with five heads of cabbage moth (Plutella xylostella) at the second instar larval stages. The cup was held at 25° C. and after 5 days, the number of surviving insects was counted and the mortality was calculated according to the following equation. Mortality (%)=(Number of dead larvae/Number of tested larvae)×100

Experiment [4] has as its system two spotted spider mites (Tetranychus urticae). Briefly: Test Example 8: kidney bean spray, two spotted spider mite controlling value. The conditions noted are these: 500 ppm, sprayed on kidney beans; female adults; 25° C.; 13 days post the treatment. As for the experimental part:
as §2
Forty (40) heads of female adult of two spotted spider mites (Tetranychus urticae) were released onto kidney beans (immediately after the development of the primary leaf). Next day, the above-mentioned test solutions were sprayed with a spray gun in the dripping amount of the chemical solution. The plants were placed in a thermostatic breeding room (25° C.), and at 13 days post the treatment, the number of the surviving insects was examined, and the controlling value was calculated by the following equation. Controlling value (%)={1−(Number of the surviving female adult insects in treated area}/(Number of the surviving female adult insects in untreated area)×100

Experiment [5] has as its system tobacco cutworm (Spodoptera litura). Briefly: Test Example 2: artificial diet, tobacco cutworm mortality. The conditions noted are these: 144 h, 2 mL on artificial diet Insecta LF, fourth instar larvae, after 6 days. As for the experimental part:
as §2
The bottom of the polyethylene cup having 5.5 cm diameter was matted with the same size of a filter paper. Insecta LF (manufactured by NOSAN CORPORATION), an artificial diet, was sliced to 6 mm in thickness, cut into half, and then placed on the filter paper. Then, 2 mL of the test solution was poured into the polyethylene cup. After the test solution was air-dried, 5 fourth instar larvae of tobacco cutworm (Spodoptera litura) were released into the polyethylene cup and the cup was sealed with a lid. After 6 days, the number of surviving tobacco cutworm (Spodoptera litura) was counted and the mortality was calculated according to the following equation. Mortality (%)=(Number of dead larvae/Number of tested larvae)×100

Experiment [6] relates to cotton aphid (Aphis gossypii). Briefly: Test Example 7: cucumber root soaking, cotton aphid controlling value. Particulars: 500 ppm, cucumber root soaked in 5 mL; inoculated one day after treatment; 7 days post the inoculation. Here is the method: as §2
Soils were washed off from the cucumber seedlings (on the developmental stage of the first true leaf). The root of the cucumber seedlings was soaked in the above-mentioned test solutions 5 mL, and at one day after the treatment, thirty heads of cotton aphid (Aphis gossypii) (all stages of life) were inoculated onto the leaves of the cucumber. At 7 days post the inoculation, the number of the surviving insets that were parasitic on the leaves of the cucumber was examined, and the controlling value was calculated by the following equation. Controlling value (%)={1−(Cb×Tai)/(Cai×Tb)}×100 wherein the symbols in the formula represent the following descriptions.
Cb: Number of the insects before treatment in untreated area;
Cai: Number of the surviving parasitic insects at the time of the investigation in untreated area;
Tb: Number of the insects before treatment in treated area;
Tai: Number of the surviving parasitic insects at the time of the investigation in treated area;

Experiment [7] relates to African malaria mosquito (Anopheles gambiae). Put plainly: Test Example 11: topical application, African malaria mosquito mortality. The conditions noted are these: 48 h, 167 ppm in acetone, 0.3 μL topically applied to pronotum of female adults, two days post the topical application, read-out: Mortality of insects. As for the experimental part:
Ten (10) mg of the compound of the present invention was dissolved into 3 mL of acetone. Further the agent solution was diluted with acetone to twenty times to prepare the testing agent solution (the active ingredient concentration 167 ppm). African malaria mosquito (Anopheles gambiae) adults were subjected to an anesthetic treatment with carbon dioxide gas, and then each of 0.3 μL of the above-mentioned testing agent solution was topically applied to a pronotum of a female insect. A test was carried out 10 heads per group, and after the topical application, the insects were transferred to a cup, and fed with 5% sugar solution. At two days post the topical application, the life and death of African malaria mosquito was examined, and the mortality of insects was calculated by the following equation. Mortality of insects (%)=(Number of dead insects)/(Number of tested insects)×100

For experiment [8], the system named is rice planthopper (Nilaparvata lugens). Briefly: Test Example 5: rice seedling plant foot irrigation, rice planthopper controlling value. Particulars: 500 ppm, 5 mL irrigated into plant foot of rice seedling; larvae released after 7 days; counted after 6 days. As for the experimental part:
(§3) A formulation of the compound of the present invention that was prepared according to Formulation Example 5 was diluted with water so that the active ingredient concentration was set to 500 ppm to prepare a testing agent solution. Rice seedling (on the developmental stage of the second true leaf) was planted in a polyethylene cup, and the above-mentioned test solutions 5 mL were irrigated into the plant foot, and the plants were held at 25° C. in a greenhouse for 7 days. Twenty (20) heads of three to four instar larvae of rice planthopper (Nilaparvata lugens) were released and the plants were held in a greenhouse at 25° C. After 6 days, the number of the surviving insects that were parasitic on the leaves of the rice was examined and the controlling value was calculated by the following equation. Controlling value (%)={1−(Cb×Tai)/(Cai×Tb)}×100 wherein the symbols in the formula represent the following descriptions. Cb: Number of the insects before treatment in untreated area; Cai: Number of the surviving parasitic insects at the time of the investigation in untreated area; Tb: Number of the insects before treatment in treated area; Tai: Number of the surviving parasitic insects at the time of the investigation in treated area;

Experiment [9] relates to housefly (Musca domestica). Put plainly: Test Example 9: filter paper with sucrose bait, housefly mortality. Particulars: 0.7 mL on filter paper, female adults, after 24 hours, read-out: Mortality of insects. As for the experimental part: as §1
The bottom of the polyethylene cup having 5.5 cm diameter was matted with the same size of a filter paper, and 0.7 mL of the above-mentioned testing agent solution was added dropwise to the filter, and 30 mg of sucrose as bait was placed in the cup uniformly. Ten (10) heads of female adult housefly (Musca domestica) were released into the polyethylene cup and the cup was covered with the lid. After 24 hours, the life and death of housefly was examined, and the number of died insects was counted and the mortality of insects was calculated by the following equation. Mortality of insects (%)=(Number of dead insects/Number of tested insects)×100

For experiment [10], the system named is rice planthopper (Nilaparvata lugens). Put plainly: Test Example 4: rice seedling spray, rice planthopper controlling value. Particulars: 500 ppm, 10 mL sprayed on rice seedling; three to four instar larvae; 25° C.; after 6 days. Here is the method:
as §3, with “solutions 10” for “solutions 5”, “were sprayed. After” for “were irrigated into”, “the test solution was air-dried, twenty” for “the plant foot, and the plants were held at 25° C. in a greenhouse for 7 days. Twenty”

The test system of experiment [11] is cotton aphid (Aphis gossypii). Briefly: Test Example 6: cucumber seedling spray, cotton aphid controlling value. The conditions noted are these: 500 ppm, 20 mL sprayed on cucumber seedling; 6 days post the spraying. Here is the method: A formulation of the compound of the present invention that was prepared according to Formulation Example 5 was diluted with water so that the active ingredient concentration was set to 500 ppm to prepare a testing agent solution. Cucumber seedling on the developmental stage of the first true leaf) was planted in a plastic cup, and about 30 heads of cotton aphid (Aphis gossypii) were released onto the leaves of the cucumber and allowed to stand for 1 day. The above-mentioned test solutions 20 mL were sprayed into the seedling. At 6 days post the spraying, the number of the surviving insects that were parasitic on the leaves of the cucumber was examined and the controlling value was calculated by the following equation. Controlling value (%)={1−(Cb×Tai)/(Cai×Tb)}×100 wherein the symbols in the formula represent the following descriptions. Cb: Number of the insects before treatment in untreated area; Cai: Number of the surviving parasitic insects at the time of the investigation in untreated area; Tb: Number of the insects before treatment in treated area; Tai: Number of the surviving parasitic insects at the time of the investigation in treated area;

In the case of `CCc1ncnc(NCCc2ccc(C(F)(F)F)cc2)c1Cl` [compound of the present invention], the mortality (commonly the share of the test organisms that died) at 3.5 ppm in experiment [1] was at least 90%. In addition, the mortality at 500 ppm was at least 90% in [2], at least 80% in experiment [3], at least 80% in experiment [5] and 100% in experiment [9]. The Controlling value in [4], in experiment [6], in experiment [8], in experiment [10] and in experiment [11] was at least 90% throughout. The mortality at 167 ppm in experiment [7] was at least 90%.
